pIC50: −log10 of the molar value.
Experiments:
phosphodiesterase = experiment: Inhibition of the degradation of cyclic AMP by phosphodiesterase (spectrophotometry); format: biochemical; settings: rat brain enzyme extract, 25° C., 265 nm
Experimental: Inhibition of the Degredation Reaction of Cyclic AMP by Phosohodiesterase
The enzyme extract necessary for this study is prepared from rat brain.
After decapitation, the brain is removed, weighed and frozen for half an hour at -70° C. The preparation, maintained in ice, is then diluted and homogenized in 50% glycerol containing 50 mmol tris(hydroxymethyl)aminomethane and 50 mmol magnesium sulfate, in the proportion of 5 ml per gram of brain. The preparation is then centrifuged. The supernatent is distributed in aliquots and stored at 4° C.
In the study, the enzyme extract is incubated :n the presence of cyclic AMP (Boehringer® Ref. 102300), alkaline phosphatase (Boehringer® Ref 108138), adenosine deaminase (Boehringer® Ref. 102091) and increasing amounts of the compounds of the invention. The kinetics of the degredation of cyclic AMP is followed by spectrophotometry at 25° C. A mixture devoid of alkaline phosphatase and adenosine deaminase is used as blank. The measurement of the optical density is carried out at 265 nm. The concentration of the compounds of the invention leading to a 50% inhibition of the enzymatic reaction (IC50) is calculated. Two reference substances, diosmine and theoprylline, are studied according to the same methodology.

[1] = system: polymorphonuclear leukocytes; experiment: Oxygen-containing free radical production by polymorphonuclear leukocytes (chemiluminescence); format: cell-based; settings: Leukocyte; rat polymorphonuclear leukocytes, Zymosan, Luminol; read-out: IC50, inhibition of the chemiluminescence reaction (free radical production)
Excerpt: Evaluation of the Pharmacodynamic Activity with Respect to Oxygen-Containing Free Radicals Produced by Polymorphonuclear Leukocytes The possible pharmacodynamic activity of the compounds of the invention with respect to the production of free radicals by polymorphonuclear leukocytes was investigated in vitro. The cellular model used was rat polymorphonuclear leukocytes. This model is capable of producing free radicals in a manner that can be monitored. The production of free radicals was quantified by measurement of the chemiluminescence, which is proportional to their quantity. Quantities of 2×10^6 polymorphonuclear leukocyte cells, isolated from heparinized rat blood, are mixed with solutions of increasing concentrations of the compounds of the invention (2×10^-4 M to 2×10^-8 M). Appropriate amounts of Hanks' solution, Zymosan® (Sigma 24250) and Luminol® (Merck 82007) are then added successively. The solutions are kept shielded from the light, and transferred rapidly to a liquid scintillation counter. In the "blank" sample, the polymorphonuclear leukocytes are replaced by an equivalent volume of Hanks' solution, and in the "control" sample, the solution of "test compounds" is replaced by a Hanks' solution. The same study was carried out with a reference product: diosmine. The percentage inhibition of free radical production was calculated by the following formula: [formula] Cl control: Maximum chemiluminescence of "control" sample Cl compounds: Maximum chemiluminescence of "test compounds" sample Cl blank: Maximum chemiluminescence of "blank" sample […]

Solubility in water = format: physicochemical; settings: addition salt
[2] = system: Croton Oil-Induced Edema of the Mouse's Ear; experiment: Croton oil-induced edema of the mouse's ear; format: in vivo, CD1 (Charles River) male mice; settings: single dose, sacrificed six hours after irritation
Experimental: Croton Oil-Induced Edema of the Mouse's Ear This test consists in inflaming the mouse's ears with an irritant solution based on croton oil, and in testing the preventive effect of the test compounds administered per os. The tests were carried out on batches of at least 8 CD1 (Charles River) male mice of average weight 18-20 g. The compounds of the invention were administered by gavage with a tube, in a single dose, on the basis of 0.1 ml of liquid per 10 g of mouse. The mouse was deprived of food, but not of drink, 2 hours before the gavage and until after the irritation. Thirty minutes after the gavage, each mouse was lightly anesthetized with ether. 10 μl of the irritant solution were then deposited by means of an Eppendorf pipette on the cutaneous surface of the pinna of the right ear; the left ear, which was not subjected to any treatment, acted as control. The animal was then replaced in the cage and sacrificed six hours later. The ears were sectioned along the cartilagineous edge and weighed immediately. To assess the activity of the product, the mean increase in weight of the ears of the treated batches (m) is compared by Student's test with that of the untreated control batch (mc).

Row | Structure (SMILES) | pIC50 (phosphodiesterase) | solubility (Solubility in water) | other results
1 | CCOC(=O)COc1cc(-c2cc(=O)c3c(O)cc(OCC(=O)N4CCN(Cc5ccc(OC)c(OC)c5OC)CC4)cc3o2)ccc1OC [Example 1 (monophosphate), 7-[2-{4-[(2,3,4-trimethoxyphenyl)methyl]-1-piperazinyl}-2-oxoethoxy-5-hydroxy-4'-methoxy-3'-(2-ethoxy-2-oxoethoxy)flavone monophosphate] |  | 158 mg/mL | 
2 | COc1ccc(-c2cc(=O)c3c(O)cc(O[C@@H]4O[C@H](CO[C@@H]5O[C@@H](C)[C@H](O)[C@@H](O)[C@H]5O)[C@@H](O)[C@H](O)[C@H]4O)cc3o2)cc1O [DIOSMINE, diosmine, reference compound] | 4.00 |  | pIC50 [1]: 4.40
3 | CCOC(=O)COc1cc(OCC(=O)N2CCN(Cc3ccc(OC)c(OC)c3OC)CC2)c2c(=O)cc(-c3ccc(OC)c(OCC(=O)OCC)c3)oc2c1 [Example 2, 5-[2-{4-[(2,3,4-Trimethoxyphenyl)methyl]-1-piperazinyl}-2-oxoethoxy-]-7,3'-bis(2-ethoxy-2-oxoethoxy)-4'-methoxyflavone] | 4.70 |  | pIC50 [1]: 5.40
4 | CCOC(=O)COc1cc(OCC(=O)N2CCN(Cc3ccc(OC)c(OC)c3OC)CC2)c2c(=O)cc(-c3ccc(OC)c(OCC(=O)OCC)c3)oc2c1.Cl [Example 2 (hydrochloride), 5-[2-{4-[(2,3,4-Trimethoxyphenyl)methyl]-1-piperazinyl}-2-oxoethoxy]-7,3'-bis(2-ethoxy-2-oxoethoxy)-4'-methoxyflavone hydrochloride] |  | 163 mg/mL | I (percentage inhibition of ear edema) ([2]; 166 mg.kg^-1 per os, p < 0.05): -34%
5 | COc1ccc(-c2cc(=O)c3c(O)cc(O[C@@H]4O[C@H](CO)[C@@H](O)[C@H](O)[C@H]4O)cc3o2)cc1OCC(=O)N1CCN(Cc2ccc(OC)c(OC)c2OC)CC1 [Example 4 (monophosphate), 3'-[2-{4-[(2,3,4-Trimethoxyphenyl)methyl]-1-piperazinyl}-2-oxoethoxy]-4'-methoxy-5-hydroxyflavone 7β-glucoside monophosphate] |  | 43 mg/mL | I (percentage inhibition of ear edema) ([2]; 173 mg.kg^-1 per os, p < 0.05): -28%
6 | COc1ccc(-c2cc(=O)c3c(O)cc(O[C@@H]4O[C@H](CO[C@@H]5O[C@@H](C)[C@H](O)[C@@H](O)[C@H]5O)[C@@H](O)[C@H](O)[C@H]4O)cc3o2)cc1OCC(=O)N1CCN(Cc2ccc(OC)c(OC)c2OC)CC1 [Example 3 (hemitartrate), 3'-[2-{4-[(2,3,4-Trimethoxyphenyl)methyl]-1-piperazinyl}-2-oxoethoxy]-4'-methoxy-5-hydroxyflavone 7-chamnoglucoside hemitartrate] |  | 200 mg/mL | I (percentage inhibition of ear edema) ([2]; 200 mg.kg^-1 per os, p < 0.01): -26%
7 | CCOC(=O)COc1cc(O)c2c(=O)cc(-c3ccc(OC)c(OCC(=O)N4CCN(Cc5ccc(OC)c(OC)c5OC)CC4)c3)oc2c1 [Example 6, 3'-[2-{4-[(2,3,4-Trimethoxyphenyl)methyl]-1-piperazinyl}-2-oxoethoxy]-4'-methoxy-5-hydroxy-7-(2-ethoxy-2-oxoethoxy)flavone] |  |  | pIC50 [1]: 5.00
8 | Cn1c(=O)c2[nH]cnc2n(C)c1=O [THEOPHYLLINE, theophylline, reference compound] | 3.00 |  | 
9 | COc1ccc(-c2cc(=O)c3c(O)cc(O[C@@H]4O[C@H](CO[C@@H]5O[C@@H](C)[C@H](O)[C@@H](O)[C@H]5O)[C@@H](O)[C@H](O)[C@H]4O)cc3o2)cc1OCC(=O)N1CCN(Cc2ccc(OC)c(OC)c2OC)CC1 [Example 3, 3'-[2-{4-[(2,3,4-Trimethoxyphenyl)methyl]-1-piperazinyl}-2-oxoethoxy]-4'-methoxy-5-hydroxyflavone 7-chamnoglucoside] | 4.60 |  | 

Continued, in another order:

Row | pIC50 (phosphodiesterase) | solubility (Solubility in water) | Structure (SMILES) | other results
10 | 4.24 |  | COc1ccc(C2CC(=O)c3c(O)cc(OCC(=O)N4CCN(Cc5ccc(OC)c(OC)c5OC)CC4)cc3O2)cc1O (stereo not drawn) [Example 8, 7-[2-{4-[(2,3,4-Trimethoxyphenyl)methyl]-1-piperazinyl}-2-oxoethoxy]-5,3'-dihydroxy-4'-methoxyflavanone] | pIC50 [1]: 4.82
11 |  | 1.4 mg/mL | COc1ccc(C2CC(=O)c3c(O)cc(OCC(=O)N4CCN(Cc5ccc(OC)c(OC)c5OC)CC4)cc3O2)cc1O.CS(=O)(=O)O (stereo not drawn) [Example 8 (methanesulfonate), 7-[2-{4-[(2,3,4-Trimethoxyphenyl)methyl]-1-piperazinyl}-2-oxoethoxy]-5,3'-dihydroxy-4'-methoxyflavanone methanesulfonate] | 
12 |  | 221 mg/mL | COc1ccc(-c2cc(=O)c3c(O)cc(OCC(=O)N4CCN(Cc5ccc(OC)c(OC)c5OC)CC4)cc3o2)cc1OCC(=O)N1CCN(Cc2ccc(OC)c(OC)c2OC)CC1 [Example 7 (biphosphate), 7,3'-Bis[2-{4-[(2,3,4-trimethoxyphenyl)methyl]-1-piperazinyl}-2-oxoethoxy]-5-hydroxy-4'-methoxyflavone biphosphate] | 
13 |  | 39.5 mg/mL | CCOC(=O)COc1cc(O)c2c(=O)cc(-c3ccc(OC)c(OCC(=O)N4CCN(Cc5ccc(OC)c(OC)c5OC)CC4)c3)oc2c1 [Example 6 (monophosphate), 3'[2-{4-[(2,3,4-Trimethoxyphenyl)methyl]-1-piperazinyl}-2-oxoethoxy]-4'-methoxy-5-hydroxy-7-(2-ethoxy-2-oxoethyoxy)flavone phosphate] | 
14 | 5.00 |  | COc1ccc(-c2cc(=O)c3c(O)cc(OCC(=O)N4CCN(Cc5ccc(OC)c(OC)c5OC)CC4)cc3o2)cc1OCC(=O)N1CCN(Cc2ccc(OC)c(OC)c2OC)CC1 [Example 7, 7,3'-Bis[2-{4-[(2,3,4-trimethoxyphenyl)methyl]-1-piperazinyl}-2-oxoethoxy]-5-hydroxy-4'-methoxyflavone] | 
15 |  | 35 mg/mL | COc1ccc(-c2cc(=O)c3c(O)cc(O)cc3o2)cc1OCC(=O)N1CCN(Cc2ccc(OC)c(OC)c2OC)CC1 [Example 5 (methanesulfonate), 3'-[2-{4-[(2,3,4-trimethoxyphenyl)methyl]-1-piperazinyl}-2-oxoethoxy]-4'-methoxy-5,7-dihydroxyflavone] | 
